# Experimental data reported in patent publication US6376169B1, “Method for diagnosing a vascular condition” (Queens University at Kingston, priority 1998, dated 2002).
# “Also recorded” adds a separate entry of the source. Where a name gives a salt, the structure may show the parent alone. Read-outs that look alike come from different tables or passages of the source.
# Legend:
# RTP/Drg1 mRNA = assay: Northern blot of RTP/Drg1 mRNA in MDA-MB-231 cells; type: cell-based, human; conditions: 20% oxygen, up to 72 h; 100 μM cobalt chloride, 30 mM Tiron or 100 μM DFO
# Description: (§1) To determine whether hypoxia regulates the expression of certain genes (e.g., PAI-1, uPAR, RTP/Drg1) via an iron-containing heme protein, cells were cultured for up to 72 h at 20% oxygen in the presence or absence of either 100 μM cobalt chloride, or 30 mM sodium 4,5-dihydroxybenzene-1,3-disulfonate (Tiron), or 100 μM desferrioxamine mesylate (DFO) (Sigma Chemical CO., St. Louis, Mo.). Further confirmation of the role of a heme protein in hypoxic responses can be achieved by culturing cells under hypoxia in the presence of carbon monoxide, which maintains the heme protein in the oxy state and thereby blocks heme protein-mediated hypoxic responses. Thus, cells were also cultured for 24 h at 37° C. under hypoxic conditions in the presence of 30% carbon monoxide.
# Northern Blot Analysis. Total RNA was isolated from cell lines as described above. Aliquots of 20 μg were denatured and subjected to electrophoresis in 1% agarose-formaldehyde gels (Sambrook, J., Fritsch, E. F., and Maniatis, T. Molecular Cloning: A Laboratory Manual, Cold Spring Harbor Laboratory, Cold Spring Harbor, N.Y. (1989)). RNA was transferred to nylon membranes (Micron Separations, Inc., Westboro, Mass.). After prehybridization at 42° C. for 2-3 h in 50% formamide, 5×Denhardt's solution, 0.5% sodium dodecyl sulfate (SDS), 6×SSC (1×SSC: 0.15M NaCl, 15 mM sodium citrate, pH 7.0), and 100 μg/mL denatured salmon sperm DNA, membranes were hybridized for a period of time of overnight (˜18 h) to about 72 h at 42° C. with a cDNA probe (e.g., RTP/Drg1, PAI-1 (PAI-1 cDNA provided by Dr. Keith McCrae, Temple University School of Medicine, Philadelphia, Pa.), uPAR (Higazi A, et al., J Biol Chem 266:12752, (1995)) pre-labeled with [^32P]-dCTP using a Pharmacia Oligolabelling kit (Pharmacia Biotech, Piscataway, N.J.). The hybridization solution contained 6×SSC, 0.5% SDS, 100 μg/mL denatured salmon sperm DNA, 50% formamide and cDNA probe. After hybridization, the membranes were washed with 2×SSC and 0.5% SDS at room temperature for 15 min, 2×SSC and 0.1% SDS at room temperature for 15 min, and 0.1×SSC and 0.5% SDS for 30 min. Dupont Reflection NEF film (Dupont Canada, Inc., Mississauga, ON) was exposed to the membranes for 1-3 days at −80° C. Bands on radiographic film were analyzed using a SigmaGel gel analysis software package (Jandel Scientific Software, San Rafael, Calif.).
# RTP/Drg1 protein = assay: Western blot of RTP/Drg1 protein in MDA-MB-231 cells; type: cell-based, human; conditions: 20% oxygen, up to 72 h; 100 μM cobalt chloride, 30 mM Tiron or 100 μM DFO
# Description: as §1
# Western Blot Analysis. To examine levels of RTP/Drg1 protein, cells were lysed with buffer containing 40 mM HEPES pH 7.2, 100 mM NaCl, 20% glycerol, 0.1 mM EDTA pH 8.0, 0.2% Triton X-100 (polyoxyethylene (10) isooctylphenyl ether), 1 mM DTT, and 2 mM PMSF, and centrifuged briefly at 4° C. The supernatants were collected and stored at −80° C. until use. SDS-PAGE was performed and resolved proteins were transferred to Immobilon-P membranes (Millipore Corp., Bedford, Mass.) using a semi-dry transfer cell (Bio-Rad Laboratories, Mississauga, ON). Membranes were blocked by incubation overnight at 4° C. in a PBS-buffered solution containing 0.01% Tween 20 (polyoxyethylene(20) sorbitan monolaurate) (PBS-T) and 5% casein. The blots were then incubated with polyclonal rabbit anti-Drg1 antiserum followed by incubation with a peroxidase labeled goat anti-rabbit IgG secondary antibody (Vector Lab. Inc., Burlingame, Calif.). Antigen was detected by enhanced chemiluminescence (ECL, Amersham Canada Inc., Oakville, ON) and exposure of the membrane onto Dupont Reflection NEF film (Dupont Canada, Inc., Mississauga ON).
# hepatic cytochromes P450 = conditions: literature; cited from earlier work
# RTP/Drg1 [1] = conditions: endothelial cells treated with homocysteine; cited from earlier work
# RTP/Drg1 [2] = conditions: A549 cells exposed to nickel; cited from earlier work
# APO-induced yawns = assay: APO-induced yawning response; type: in vivo, Wistar rats
# Description: The apomorphine (APO) bioassay of erectile function was performed in an isolated area. The rat model of APO-induced erections used to assess the effects of p,p-DDE and flutamide on erectile function was based on the model developed by Heaton et al J Urol. 145:1099 (1991). The animals were each placed in a separate hanging wire test cage in an isolated, dark and sound proof room and allowed to acclimatize to the surroundings for 10 minutes. Each rat received 80 ug/kg APO (Sigma Chemical Co., St. Louis, Mo.) prepared in physiological saline containing […] ascorbic acid via subcutaneous (s.c.) injection (lml/kg at the nape of the neck). Erectile and yawning responses to APO were monitored and recorded (30 minutes) in an adjacent room via a video monitoring system.
# (§2) An erection was counted when an engorged glans penis and distal shaft were exposed. A wide opening of the mouth associated with appropriate respiratory movement identified a yawn. […] Rats with unsatisfactory control erectile response were removed from further study.
# [3] = pubertal or adults rats, Kelce et al; cited from earlier work
# APO-induced erections = assay: Apomorphine (APO) bioassay of erectile function; type: in vivo, Wistar rats
# Description: 16 adult male Wistar rats from Charles River Laboratories (Montreal, Quebec) weighing 300-350 g were used in the investigation. The animals were divided into two study groups. The animals were individually housed in a climate-controlled room under a 12-hour light/dark cycle and allowed access to food (Purina Lab Chow) and water ad libitum. All procedures were in accordance with the guidelines set out by the Canadian Council on Animal Care. The animals were allowed to acclimate 5 days prior to testing and were handled by the researcher during this time.
# The apomorphine (APO) bioassay of erectile function was performed in an isolated area. […] The animals were each placed in a separate hanging wire test cage in an isolated, dark and sound proof room and allowed to acclimatize to the surroundings for 10 minutes. Each rat received 80 ug/kg APO (Sigma Chemical Co., St. Louis, Mo.) prepared in physiological saline containing […] ascorbic acid via subcutaneous (s.c.) injection (lml/kg at the nape of the neck). Erectile and yawning responses to APO were monitored and recorded (30 minutes) in an adjacent room via a video monitoring system.
# as §2
# Yawns were not altered in either protocol (data not shown).
# The 270 mg/kg dose was prepared, requiring initial heating and stirring. This dose was administered in a single injection (1 ml/kg, i.p. of a 270 mg/ml concentration) half an hour prior to the commencement of APO-induced erectile monitoring.
# At one week intervals, rats were given single, increasing doses of flutamide (25, 35, or 50 mg/kg) (Sigma Chemical Co., St. Louis, Mo.). For each dose, flutamide was dissolved in peanut oil and administered via i.p injection in a volume of 1 ml/kg. […] Each dose of flutamide was given 1 week after the previous dose, to allow APO-induced erections to return to control levels.
# From the group of 8 rats, 4 rats were randomly selected.
# Testosterone was administered in an attempt to recover APO-induced erections to control levels.
# The required testosterone concentrations were prepared using 100 mg/ml testosterone propionate (Taro Pharmaceuticals, Brarnalea, ON.) diluted in peanut oil. Each dose was administered in a 1 ml/kg volume.
# For each APO testing protocol, the average number of erections and standard deviation was determined. […] Therefore, each rat served as its own control. Treated values were compared to control values using Student's paired t-test, except where noted in Study 2b.
# uPAR = conditions: vascular endothelial cells; cited from earlier work
# uPAR mRNA = assay: Northern blot of uPAR mRNA in HTR-8/SVneo cells; type: cell-based, human; conditions: 10 ng/ml VEGF, 24 h, normoxic conditions
# Description: as §1, with “Thus, cells were also cultured for 24 h at 37° C. under hypoxic conditions in the presence of 30% carbon monoxide.” left out
# Northern Blot Analysis. Total RNA was isolated from cell lines as described above. […] RNA was transferred to nylon membranes (Micron Separations, Inc., Westboro, Mass.). […] The hybridization solution contained 6×SSC, 0.5% SDS, 100 μg/mL denatured salmon sperm DNA, 50% formamide and cDNA probe. After hybridization, the membranes were washed with 2×SSC and 0.5% SDS at room temperature for 15 min, 2×SSC and 0.1% SDS at room temperature for 15 min, and 0.1×SSC and 0.5% SDS for 30 min. Dupont Reflection NEF film (Dupont Canada, Inc., Mississauga, ON) was exposed to the membranes for 1-3 days at −80° C. Bands on radiographic film were analyzed using a SigmaGel gel analysis software package (Jandel Scientific Software, San Rafael, Calif.).
compound,measurement,setting,value
"CC(=O)N(O)CCCCCNC(=O)CCC(=O)N(O)CCCCCNC(=O)CCC(=O)N(O)CCCCCN [DFO, desferrioxamine mesylate]",levels of RTP/Drg1 mRNA,RTP/Drg1 mRNA,time-dependent increases in RTP/Drg1 mRNA
same,levels of RTP/Drg1 protein,RTP/Drg1 protein,time-dependent increases in RTP/Drg1 protein
CC(C)C(=O)Nc1ccc([N+](=O)[O-])c(C(F)(F)F)c1 [flutamide],metabolism upon administration / absorption,hepatic cytochromes P450,rapidly metabolised by hepatic cytochromes P450
N[C@@H](CCS)C(=O)O [homocysteine],expression of RTP/Drg1,RTP/Drg1 [1],increased
[Ni] [nickel],expression of RTP/Drg1,RTP/Drg1 [2],increased
"ClC(Cl)=C(c1ccc(Cl)cc1)c1ccc(Cl)cc1 [p,p-DDE]",metabolism upon administration / absorption,hepatic cytochromes P450,not metabolised
same,APO-induced yawns,"APO-induced yawns; 500 mg/kg p,p-DDE, two week assessment",not significantly different from control levels; also recorded: little effect
same,APO-induced yawning responses,"APO-induced yawns; p,p-DDE treatment, Study 1",not altered
same,plasma testosterone levels,[3],did not alter plasma testosterone levels
same,APO-induced erections,"APO-induced erections; 270 mg/kg p,p-DDE i.p., 5 hour testing period, Study 1",no significant effect
same,APO-induced erectile response,"APO-induced erections; 500 mg/kg p,p-DDE i.p., 3 hours after administration, Study 1",significant decrease
same,APO-induced erectile response two weeks after administration,"APO-induced erections; 500 mg/kg p,p-DDE vs control and 50 mg/kg flutamide",significantly different from controls and from the flutamide two week response; also recorded: remained significantly lower than controls; also recorded: significantly different from both control and 50 mg/kg flutamide responses
same,"APO-induced erections, time course","APO-induced erections; single dose 500 mg/kg p,p-DDE, 0.5, 4, 12, 24 hours and 2 weeks, 500 mg/kg",significantly decreased; also recorded: persistently suppressed
"CCC(=O)O[C@H]1CC[C@H]2[C@@H]3CCC4=CC(=O)CC[C@]4(C)[C@H]3CC[C@]12C [testosterone, testosterone propionate]",APO-induced yawning responses after testosterone supplementation,"APO-induced yawns; p,p-DDE treated rats, 12 hour test periods",did not change the status of yawning responses
same,"APO-induced erections in p,p-DDE treated rats after testosterone supplementation","APO-induced erections; 480 ug/kg, 1.2 or 2.4 mg/kg i.p., 0.5, 4, 12 hours, two weeks after p,p-DDE",no significant increases in erections; also recorded: remained significantly decreased at most of the time points; also recorded: failed to return APO-induced erections to control levels
VEGF,expression of uPAR,uPAR,increases the expression of uPAR
same,induction of uPAR mRNA,uPAR mRNA,did not result in increased levels of uPAR transcript; also recorded: does not induce
